Measurements as given in patent US20230174608A1, “Polypeptide Derivative Having Dual Receptor Agonistic Action and Use Thereof” (TIANJIN INSTITUTE OF PHARMACEUTICAL RESEARCH CO., LTD., priority 2020, published 2023).
Marks after values point to notes of the source that are not given here. Where a SMILES comes first, the peptide text is derived from it.

What was measured:
GCGR = biological target: T1, GCGR (Homo sapiens, UniProt P47871); assay: GC receptor-mediated cAMP production in vitro; format: cell-based; conditions: HEK293 cell line stably expressing GCGR
T1 construct: expressed in transfected cells
T1 sequence (P47871 26-477, species assumed): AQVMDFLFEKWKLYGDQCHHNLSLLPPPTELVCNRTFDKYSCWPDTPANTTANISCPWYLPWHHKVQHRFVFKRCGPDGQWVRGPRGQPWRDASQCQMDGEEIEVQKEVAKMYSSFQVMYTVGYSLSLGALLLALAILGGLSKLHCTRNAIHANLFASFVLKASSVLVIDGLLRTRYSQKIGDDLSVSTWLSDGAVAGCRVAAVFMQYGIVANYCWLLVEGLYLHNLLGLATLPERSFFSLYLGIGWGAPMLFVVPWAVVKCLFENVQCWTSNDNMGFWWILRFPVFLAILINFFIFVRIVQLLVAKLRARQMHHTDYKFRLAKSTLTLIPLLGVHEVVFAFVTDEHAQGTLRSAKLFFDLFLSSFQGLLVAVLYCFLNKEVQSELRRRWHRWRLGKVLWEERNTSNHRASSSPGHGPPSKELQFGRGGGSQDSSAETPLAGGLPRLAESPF
Method in brief: (§1)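 HEK293 cells stably expressing human GLP-1R or GCGR are stimulated with compound for 30 min in the dark in serum-free medium with 0.5 mM IBMX, with test dilutions spanning 1 μM down to 10^−3 nM. cAMP is detected after a 60 min room-temperature reaction as the 665/615 nm ratio.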

[1] = system: diet-induced obesity (DIO) mice; assay: Obese (DIO) model mice, 23 days of successive administration; format: in vivo, C57BL/6J Gpt mice
Source text: C57BL/6J Gpt mice (purchased from GemPharmatech (Jiangsu) Co., Ltd.) (6-8-week-old) were fed with H10060 high-fat diet (purchased from Beijing HFK Bioscience Co., Ltd.) to obtain diet-induced obesity (DIO) models, mice in a blank control group (n=5) were fed with standard diets, and all the mice were fed for 11 weeks after being purchased. One day before the first administration, the mice in the model group were randomly divided into 5 groups according to their weights (within a range of 39.5-49.5 g), i.e., a model control group, a positive control group, and test compound groups (dgc005, dgc016, and dgc020), respectively, 5 mice in each group, which were administered every day by subcutaneous injection. Saline was subcutaneously injected in the blank control group and the model control group every day. The administration was performed for 23 days. The positive control drug and the test compounds were administered at a dose of 30 nmol/kg, and the administration volume for each group was 0.005 mL/g weight. The mice were weighed before each administration, and 72-h food intake was weighed every three days. The mice fasted for 16 h before the last administration, fasting blood glucose levels were determined, blood was sampled from the orbital venous plexus to determine triglycerides and total cholesterol, and the liver was taken out for pathological section observation.
The liver of each C576L/6 mouse in the groups was fixed with 12% formaldehyde and prepared into a specimen, and the tissue block was repaired, dehydrated with graded alcohol, embedded in paraffin, stained with HE, and examined under a light microscope.

[2] = system: glucose loaded normal mice; assay: Glucose loading test on normal mice after single administration; format: in vivo, Kunming mice
Method: The hypoglycemic action of each compound of Example 1 was assessed by a glucose loading test on normal mice after single administration.
Method: Kunming mice (male, with a weight of 20-22 g) were acclimated in a barrier environment animal room for 3 days, divided into a blank control group, a model control group, a positive control group, and test compound groups, 5 mice in each group, and fasted for 6 h. Saline was administered to each mouse in the blank control group and the model control group, the compounds and a positive control drug were respectively administered to each mouse in the test compound groups and the positive control group at a dose of 30 nmol/kg, and the positive control drug was semaglutide. 60 min after administration, glucose was intragastrically administered to each mouse in the model control group, the positive control group, and the test compound groups at a dose of 2.5 g/kg (0.01 mL·g^−1 weight), distilled water was administered to each mouse in the blank control group, and blood glucose levels were determined 30 min after glucose loading.

GLP-1R = biological target: T2, GLP-1R (Homo sapiens, UniProt P43220); assay: GLP-1 receptor-mediated cAMP production in vitro; format: cell-based; conditions: HEK293 cell line stably expressing GLP-1R
T2 construct: expressed in transfected cells
T2 sequence (P43220 24-463, species assumed): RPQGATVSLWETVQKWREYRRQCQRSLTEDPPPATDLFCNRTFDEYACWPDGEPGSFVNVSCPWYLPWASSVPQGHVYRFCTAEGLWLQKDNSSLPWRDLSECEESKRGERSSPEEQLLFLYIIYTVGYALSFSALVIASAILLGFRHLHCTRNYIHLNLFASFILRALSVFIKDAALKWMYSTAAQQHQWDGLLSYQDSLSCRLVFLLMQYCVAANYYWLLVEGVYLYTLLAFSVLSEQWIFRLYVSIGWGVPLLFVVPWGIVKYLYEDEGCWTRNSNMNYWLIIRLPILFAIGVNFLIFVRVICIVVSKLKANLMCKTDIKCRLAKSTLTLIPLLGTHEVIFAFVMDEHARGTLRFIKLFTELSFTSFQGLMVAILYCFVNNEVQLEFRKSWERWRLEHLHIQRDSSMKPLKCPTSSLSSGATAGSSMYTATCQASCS
Method in brief: as §1

[3] = system: diet-induced obesity (DIO) mice; assay: DIO mice, weight and blood glucose after multiple administrations at different doses; format: in vivo, C57BL/6N mice; conditions: for Fasting blood glucose (mmol/L) before the last administration / Blood glucose level (mmol/L) 0.5 h after glucose loading / Glycemic load reduction rate: Day 22; for Fasting blood glucose (mmol/L) before the last administration: fasted 16 h; for Blood glucose level (mmol/L) 0.5 h after glucose loading: glucose 1 g/kg intragastric 30 min after administration; for Glycemic load reduction rate: versus model control group; for Reduction rate of weight without fasting on day 21 compared to day 0: n=5
Source text: 40 C57BL/6N mice were purchased from Beijing Vital River Laboratory Animal Technology Co., Ltd. Mice in a model group (n=35) were fed with H10060 high-fat diets to obtain diet-induced obesity (DIO) models, mice in a blank control group (n=5) were fed with standard diets, and all the mice were fed for 36 weeks. On the day of the first administration, the mice in the model group were randomly divided into 7 groups according to their weights (within a range of 45-60 g), i.e., a model control group, positive control groups (semaglutide at doses of 10 nmol/kg and 30 nmol/kg, respectively), and test compound groups (dgc005 and dgc016 at doses of 10 nmol/kg and 30 nmol/kg, respectively), 5 mice in each group. The positive control drug and the test compounds were respectively subcutaneously injected into each mouse in the positive control groups and the test compound groups every day, saline was subcutaneously injected into each mouse in the blank control group and the model control group, and the administration was performed for 22 days (the administration volume for each group was 0.005 mL/g weight). The mice were weighed before each administration, and 72-h food intake was weighed every three days. The mice fasted for 16 h before the last administration, and 30 min after administration, a glucose solution (1 g/kg, the administration volume was 0.01 mL/g weight) was intragastrically administered to each mouse for glucose tolerance test. Blood glucose levels were determined 0.5 h after glucose loading.

[4] = after 23 days of administration, 30 nmol/kg s.c. daily, n=5

**Q.** How did the EC50 (GCGR) turn out when `CCCCCCCCCCCCCCCC(=O)N[C@@H](CCC(=O)N[C@@H](CCC(=O)NCCCC[C@H](NC(=O)[C@H](C)NC(=O)[C@H](C)NC(=O)[C@H](CCCNC(=N)N)NC(=O)[C@H](CCC(=O)O)NC(=O)[C@H](CCC(=O)O)NC(=O)[C@H](CC(C)C)NC(=O)[C@H](Cc1ccc(O)cc1)NC(=O)[C@H](CCCCN)NC(=O)[C@H](CO)NC(=O)[C@H](Cc1ccc(O)cc1)NC(=O)[C@H](CC(=O)O)NC(=O)[C@H](CO)NC(=O)[C@@H](NC(=O)[C@H](Cc1ccccc1)NC(=O)[C@@H](NC(=O)CNC(=O)[C@H](CCC(N)=O)NC(=O)C(C)(C)NC(=O)[C@@H](N)Cc1c[nH]cn1)[C@@H](C)O)[C@@H](C)O)C(=O)N[C@@H](CCC(=O)O)C(=O)N[C@@H](Cc1ccccc1)C(=O)N[C@H](C(=O)N[C@@H](C)C(=O)N[C@@H](Cc1c[nH]c2ccccc12)C(=O)N[C@@H](CC(C)C)C(=O)N[C@@H](CCC(=O)O)C(=O)NCC(=O)NCC(N)=O)[C@@H](C)CC)C(=O)O)C(=O)O` [dgc016] (HELM PEPTIDE1{H.[Aib].Q.G.T.F.T.S.D.Y.S.K.Y.L.E.E.R.A.A.K.E.F.I.A.W.L.E.G.G.[am]}|PEPTIDE2{[CCCCCCCCCCCCCCCC(=O)[*:2]].[gGlu].[gGlu]}$PEPTIDE1,PEPTIDE2,20:R3-3:R2$$$V2.0; N-terminus assumed) was run?
**A.** The EC50 was 0.342 nM.

**Q.** What about the “Fasting blood glucose (mmol/L) before the last administration” value ([1]; 30 nmol/kg s.c. daily, 23 days, fasted 16 h, n=5) of the same compound?
**A.** Its value is 4.18 ± 0.40 mmol/L.

**Q.** And the Weight decreasing rate ([1]; 30 nmol/kg s.c. every day, without fasting before the last administration compared to day 1)?
**A.** The Weight decreasing rate was 29.3%.

**Q.** What about the “Effect on triglycerides (in words)” value ([1]; 23 days, 30 nmol/kg s.c. daily) of the same compound?
**A.** The value was “has a triglyceride reduction action”.

**Q.** What about the “Examination of liver pathological section” value ([1]; 23 days, 30 nmol/kg s.c. daily, HE stain, 2 animals) of the same compound?
**A.** The value was “no obvious pathological changes are seen in portal areas and interstitium”.

**Q.** What about the “TC (total cholesterol)” value [1, 4] of the same compound?
**A.** Its value is 3.32 ± 0.73 ^ mmol/L.

**Q.** And the “TG (triglycerides)” value [1, 4]?
**A.** Its value is 0.75 ± 0.10**^ΔΔ mmol/L.

**Q.** What about the 72-h food intake ([1]; day 4 of administration, 30 nmol/kg s.c. daily) of the same compound?
**A.** Its 72-h food intake is 3.30 g/mouse.

**Q.** What about the 72-h food intake ([1]; day 7 of administration, 30 nmol/kg s.c. daily) of the same compound?
**A.** The 72-h food intake was 4.80 g/mouse.

**Q.** And the 72-h food intake ([1]; day 10 of administration, 30 nmol/kg s.c. daily)?
**A.** The 72-h food intake was 6.10 g/mouse.

**Q.** What about the 72-h food intake ([1]; day 13 of administration, 30 nmol/kg s.c. daily) of the same compound?
**A.** Its 72-h food intake is 5.70 g/mouse.

**Q.** And the “Blood glucose reduction rate (%)” value ([2]; 30 nmol/kg single dose, after glucose loading, versus model control group)?
**A.** The value was 59.88%.

**Q.** And the “Blood glucose level after glucose loading” value ([2]; 30 nmol/kg single dose, glucose 2.5 g/kg intragastric 60 min after administration, measured 30 min after loading, n=5)?
**A.** Its value is 6.82 ± 1.78**^ mmol/L.

**Q.** And the “Inhibition of the rise of blood glucose after glucose loading (in words)” value ([2]; 30 nmol/kg single dose, normal mice)?
**A.** Its value is “equivalent to that of the positive control drug”.

**Q.** What about the “Fasting blood glucose level” value ([2]; normal mice fasted 6 h, 30 nmol/kg group, n=5) of the same compound?
**A.** The value was 3.66 ± 0.77 mmol/L.

**Q.** And the EC50 (GLP-1R)?
**A.** Its EC50 is 1.23 nM.

**Q.** What about the “Fasting blood glucose (mmol/L) before the last administration” value ([3]; 10 nmol/kg s.c. daily) of the same compound?
**A.** The value was 4.68 ± 2.12 mmol/L.

**Q.** What about the “Blood glucose level (mmol/L) 0.5 h after glucose loading” value ([3]; 10 nmol/kg s.c. daily) of the same compound?
**A.** The value was 7.12 ± 0.61**^Δ mmol/L.

**Q.** What about the “Glycemic load reduction rate” value ([3]; 10 nmol/kg s.c. daily) of the same compound?
**A.** The value was 32.32.

**Q.** What about the “Reduction rate of weight without fasting on day 21 compared to day 0” value ([3]; 10 nmol/kg s.c. every day) of the same compound?
**A.** Its value is 17.56%.

**Q.** And the “Fasting blood glucose (mmol/L) before the last administration” value ([3]; 30 nmol/kg s.c. daily)?
**A.** The value was 5.02 ± 2.34 mmol/L.

**Q.** What about the “Blood glucose level (mmol/L) 0.5 h after glucose loading” value ([3]; 30 nmol/kg s.c. daily) of the same compound?
**A.** The value was 7.48 ± 0.78 mmol/L.

**Q.** What about the “Glycemic load reduction rate” value ([3]; 30 nmol/kg s.c. daily) of the same compound?
**A.** Its value is 28.90.

**Q.** And the “Reduction rate of weight without fasting on day 21 compared to day 0” value ([3]; 30 nmol/kg s.c. every day)?
**A.** Its value is 19.92%.
